Among the test systems are OVCAR-4 ovarian; RXF 393 renal; LOX IMVI melanoma; MDA-N; SW-620 colon; 786-0 renal; KM12 colon; TK-10 renal; OVCAR-5 ovarian; SK-MEL-28 melanoma; UO-31 renal; M14 melanoma; OVCAR-8 ovarian; NCI-H460 lung; A498 renal; SR leukemia; SK-MEL-2 melanoma; NCI-H522 lung; DU-145 prostate; HCT-116 colon.
What all share (assay): growth of human tumour cells (NCI), 48 h

Here are results for 7 compounds from PubChem BioAssay (NCI).

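These data come from cells grown in 96-well plates and exposed to compound for 48 hours at five concentrations. Definition used: TGI = concentration required for complete inhibition of growth.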 Where only a bound is given, the exact number is not on record here.

Consider `O=C1c2ccccc2C(=O)c2c1ccc1nc3c(nc21)-c1c2ccccc2cc2cccc-3c12`, for which the TGI in the assay with OVCAR-4 ovarian, in the assay with RXF 393 renal, in the assay on LOX IMVI melanoma, in the assay on MDA-N, in the assay on SW-620 colon and in the assay on 786-0 renal was > 100 µM in each case. Also, the TGI in the assay on KM12 colon is > 94.9 µM; with TK-10 renal, > 100 µM; with OVCAR-5 ovarian it was > 100 µM; in the assay with SK-MEL-28 melanoma, > 100 µM; with UO-31 renal it was > 100 µM; in the assay on M14 melanoma it was > 100 µM. Moreover, the TGI in the assay with OVCAR-8 ovarian was > 100 µM; in the assay with NCI-H460 lung, > 100 µM; with A498 renal, > 82.5 µM; in the assay on SR leukemia it was > 100 µM; with SK-MEL-2 melanoma, > 100 µM; in the assay on NCI-H522 lung, > 100 µM. The TGI in the assay with DU-145 prostate is > 81.7 µM; in the assay with HCT-116 colon, > 100 µM.

With `COC(=O)Nc1nc2ccc(S(=O)(=O)n3nnc4ccccc43)cc2[nH]1`, the TGI in the assay on OVCAR-4 ovarian is > 100 µM; in the assay on RXF 393 renal, 36.1 µM; with LOX IMVI melanoma, > 100 µM; with MDA-N, > 100 µM; with SW-620 colon it was > 100 µM; with 786-0 renal, > 100 µM. Moreover, the TGI in the assay on KM12 colon, in the assay on OVCAR-5 ovarian, in the assay with SK-MEL-28 melanoma, in the assay with UO-31 renal, with M14 melanoma and in the assay with OVCAR-8 ovarian was > 100 µM each time. Also, the TGI with NCI-H460 lung, in the assay on A498 renal, with SR leukemia, in the assay with SK-MEL-2 melanoma, with NCI-H522 lung and in the assay on DU-145 prostate was > 100 µM each time. Besides, the TGI in the assay on HCT-116 colon is > 100 µM.

For the compound `ClCCN1CCOC1=Nc1ccc2c(c1)CCCC2`, the TGI in the assay with OVCAR-4 ovarian amounted to 41.4 µM; with RXF 393 renal, 22.6 µM; in the assay with LOX IMVI melanoma it was 32.3 µM; in the assay on MDA-N, 28.3 µM; in the assay with SW-620 colon, 61.2 µM; with 786-0 renal, 35.3 µM. Also, the TGI came to 32 µM in the assay on KM12 colon; 32.4 µM with OVCAR-5 ovarian; 39.1 µM in the assay with SK-MEL-28 melanoma; 30.3 µM with UO-31 renal; 33 µM in the assay on M14 melanoma; 17.3 µM in the assay on OVCAR-8 ovarian. In addition, the TGI came out at 61.8 µM in the assay with NCI-H460 lung; 23 µM with A498 renal; 61.1 µM with SR leukemia; 38.1 µM in the assay with SK-MEL-2 melanoma; 54.9 µM in the assay with NCI-H522 lung; 48.4 µM in the assay with DU-145 prostate. The compound also had a TGI with HCT-116 colon of 26.8 µM.

Consider `CCOC(=O)[C@H](O)[C@@H](O)C(=O)NCc1ccc(C(=O)c2ccccc2)cc1`, for which the TGI with OVCAR-4 ovarian, with RXF 393 renal, with LOX IMVI melanoma, in the assay with MDA-N, with SW-620 colon and with 786-0 renal was > 100 µM in each case. The TGI in the assay on KM12 colon, in the assay on TK-10 renal, in the assay with OVCAR-5 ovarian, with SK-MEL-28 melanoma, in the assay on UO-31 renal and in the assay on M14 melanoma was > 100 µM throughout. Further, the TGI with OVCAR-8 ovarian, in the assay with NCI-H460 lung, in the assay on A498 renal, in the assay with SR leukemia, in the assay on SK-MEL-2 melanoma and in the assay on NCI-H522 lung was > 100 µM throughout. The TGI with DU-145 prostate and with HCT-116 colon was > 100 µM in each case.

For the compound `Cc1ccc(S(=O)(=O)/N=C(\N)N(C)N=O)cc1`, the TGI in the assay on OVCAR-4 ovarian, in the assay with RXF 393 renal, in the assay with LOX IMVI melanoma, in the assay on MDA-N, in the assay with SW-620 colon and in the assay with 786-0 renal was > 100 µM in each case. In addition, the TGI with KM12 colon, in the assay with TK-10 renal, in the assay with OVCAR-5 ovarian, with SK-MEL-28 melanoma, with UO-31 renal and with M14 melanoma was > 100 µM in each case. Also, the TGI in the assay with OVCAR-8 ovarian, in the assay with NCI-H460 lung, in the assay on A498 renal, in the assay with SR leukemia, with SK-MEL-2 melanoma and in the assay with NCI-H522 lung was > 100 µM throughout. For the same compound, the TGI in the assay on DU-145 prostate and with HCT-116 colon was > 100 µM throughout.

On to `Fc1ccc(OCc2nc3cc(C(F)(F)F)ccc3nc2-c2ccccc2)cc1`, for which the TGI in the assay with OVCAR-4 ovarian, in the assay with RXF 393 renal, in the assay with LOX IMVI melanoma, in the assay on MDA-N, in the assay on SW-620 colon and with 786-0 renal was > 100 µM in each case. The TGI in the assay on KM12 colon, in the assay with TK-10 renal, with OVCAR-5 ovarian, with SK-MEL-28 melanoma, in the assay with UO-31 renal and in the assay on M14 melanoma was > 100 µM in each case. For the same compound, the TGI in the assay on OVCAR-8 ovarian, in the assay on NCI-H460 lung, in the assay with A498 renal, in the assay with SR leukemia, with SK-MEL-2 melanoma and in the assay with NCI-H522 lung was > 100 µM each time. In addition, the TGI in the assay with DU-145 prostate and with HCT-116 colon was > 100 µM throughout.

As to `O=C(CC(C(=O)c1ccco1)c1cccs1)c1cccs1` (stereo not drawn), the TGI in the assay on OVCAR-4 ovarian, with RXF 393 renal, in the assay on LOX IMVI melanoma, in the assay on MDA-N, in the assay on SW-620 colon and in the assay with 786-0 renal was > 100 µM in each case. Besides, the TGI in the assay with KM12 colon, in the assay on TK-10 renal, in the assay on OVCAR-5 ovarian, in the assay with SK-MEL-28 melanoma, in the assay on UO-31 renal and in the assay on M14 melanoma was > 100 µM each time. The TGI in the assay on OVCAR-8 ovarian, with NCI-H460 lung, in the assay on A498 renal, in the assay with SR leukemia, in the assay with SK-MEL-2 melanoma and with NCI-H522 lung was > 100 µM throughout. Further, the TGI with DU-145 prostate and in the assay with HCT-116 colon was > 100 µM in each case.
